pIC50: −log10 of the molar value.

B-Raf (V600E)-kinase, sequence (P15056 whole entry V600E): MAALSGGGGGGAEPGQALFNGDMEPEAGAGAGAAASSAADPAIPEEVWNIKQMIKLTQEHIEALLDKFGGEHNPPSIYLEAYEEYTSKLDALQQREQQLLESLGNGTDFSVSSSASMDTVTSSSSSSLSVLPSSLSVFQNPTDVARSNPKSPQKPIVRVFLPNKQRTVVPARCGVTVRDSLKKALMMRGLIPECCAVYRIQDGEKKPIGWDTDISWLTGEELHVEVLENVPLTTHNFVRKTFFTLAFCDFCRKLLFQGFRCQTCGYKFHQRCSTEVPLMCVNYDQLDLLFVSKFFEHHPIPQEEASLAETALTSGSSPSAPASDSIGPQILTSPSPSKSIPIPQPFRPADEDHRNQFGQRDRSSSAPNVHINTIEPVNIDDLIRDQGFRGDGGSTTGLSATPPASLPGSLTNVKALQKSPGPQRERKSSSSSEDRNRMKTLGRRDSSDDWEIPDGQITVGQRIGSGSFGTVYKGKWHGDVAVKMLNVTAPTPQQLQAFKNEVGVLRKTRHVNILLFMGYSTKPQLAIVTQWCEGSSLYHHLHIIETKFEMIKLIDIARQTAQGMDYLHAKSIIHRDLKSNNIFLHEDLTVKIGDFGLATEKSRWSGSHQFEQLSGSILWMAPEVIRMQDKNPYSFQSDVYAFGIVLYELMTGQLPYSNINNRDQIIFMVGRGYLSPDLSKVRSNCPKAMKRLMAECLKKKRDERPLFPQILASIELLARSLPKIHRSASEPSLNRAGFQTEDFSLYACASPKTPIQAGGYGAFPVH

The target of the experiment is B-Raf (V600E)-kinase (Homo sapiens (Human), UniProt P15056, V600E). Put plainly: Kinase test B-Raf (V600E). Type of experiment: biochemical. To be noted: 1 h preincubation, 250 μM ATP. As for the experimental part:
In a dilution series 10 μL/well of test substance solution are placed in a multiwell plate. The dilution series is selected so that generally a range of concentrations of 2 μM to 0.119 nM or 0.017 nM is covered. If necessary the initial concentration of 2 μM is changed to 50 μM, 10 μM or 0.4 μM or 0.2857 μM and further dilution is carried out accordingly. The final concentration of DMSO is 5%. 10 μL/well of the B-Raf (V600E)-kinase solution are pipetted in (containing 0.5 ng B-Raf (V600E)-kinase (e.g. from Upstate) in 20 mM Tris-HCl pH 7.5, 0.1 mM EDTA, 0.1 mM EGTA, 0.286 mM sodium orthovanadate, 10% glycerol, 1 mg/mL bovine serum albumin, 1 mM dithiothreitol) and the mixture is incubated for 1 h at RT under with shaking. The kinase reaction is started by the addition of 20 μL/well ATP solution [final concentration: 250 μM ATP, 30 mM Tris-HCl pH 7.5, 0.02% Brij, 0.2 mM sodium orthovanadate, 10 mM magnesium acetate, 0.1 mM EGTA, phosphatase cocktail (Sigma, #P2850, dilution recommended by the manufacturer)] and 10 μL/well MEK1 solution [containing 50 ng biotinylated MEK1 (prepared from purified MEK1 according to standard procedure, e.g. with EZ-Link Sulpho-NHS-LC-Biotin reagent, Pierce, #21335)] and carried out for 60 min at RT with constant shaking. The reaction is stopped by the addition of 12 μL/well of a 100 mM EDTA solution and incubation is continued for a further 5 min. 55 μL/well of the reaction solution are transferred into a streptavidin-coated plate (e.g. Streptawell HighBond, Roche, #11989685001) and shaken gently for 1 h at RT, in order to bind biotinylated MEK1 to the plate. After elimination of the liquid the plate is washed five times with 200 μL/well of 1×PBS and 100 μL/well solution of primary antibody plus europium-labelled secondary antibody [Anti Phospho-MEK (Ser217/221), Cell Signaling, #9121 and Eu-N1 labelled goat-anti-rabbit antibody, Perkin Elmer, #AD0105] is added, the primary antibody is diluted 1:2000 and the secondary antibody is diluted to 0.4-0.5 μg/mL in Delfia Assay Buffer (Perkin Elmer, #1244-111). After 1 h shaking at RT the solution is poured away and washed five times with 200 μL/well Delfia Wash Buffer (Perkin Elmer, #4010-0010/#1244-114). After the addition of 200 μL/well Enhancement Solution (Perkin Elmer, #4001-0010/#1244-105) the mixture is shaken for 10 min at RT and then measured in a Wallac Victor using the program “Delfia Time Resolved Fluorescence (Europium)”. IC50 values are obtained from these dosage-activity curves using a software program (GraphPadPrizm).
In the case of `Cc1ccc(C(=O)Nc2cc(C(C)(C)C)on2)cc1-n1cc(-c2cncc(N3CCCN(C(C)C)CC3)c2)nn1` [I-52], the pIC50 is 7.74.
The value for `COCCN(C)c1cncc(-c2cn(-c3cc(C(=O)Nc4cc(C(C)(C)C)on4)ccc3C)nn2)c1` [I-53] was 7.96.
To `Cc1ccc(C(=O)Nc2cc(C(C)(C)C)on2)cc1-n1cc(-c2cncc(NCC(F)F)c2)nn1` [I-54] belongs 7.29; to `Cc1ccc(C(=O)Nc2cc(C(C)(C)C)nn2C)cc1-n1cc(-c2cncc(N3CCN(C)CC3)c2)nn1` [I-55], 7.80.
To `CCN(C)c1cncc(-c2cn(-c3cc(C(=O)Nc4cc(C(C)(C)C)on4)ccc3C)nn2)c1` [I-56] belongs 7.74.
On to `Cc1ccc(C(=O)Nc2cc(C(F)(F)F)ccn2)cc1-n1cc(-c2cncc(N3CCC3)c2)nn1` [I-57], for which the pIC50 was 7.80.
The value for `Cc1ccc(C(=O)Nc2cc(C(F)(F)F)ccn2)cc1-n1cc(-c2cncc(NCC3CCCO3)c2)nn1` (stereo not drawn) [I-58] was 7.96; that for `Cc1ccc(C(=O)Nc2cc(C(F)(F)F)ccn2)cc1-n1cc(-c2cncc(N(C)CC3CCCO3)c2)nn1` (stereo not drawn) [I-59] was 7.36.
Consider `Cc1ccc(C(=O)Nc2cc(C(F)(F)F)ccn2)cc1-n1cc(-c2cncc(N3CCC(N(C)C)CC3)c2)nn1` [I-60], for which the pIC50 is 8.10.
Turning to `COCCN1CCN(c2cncc(-c3cn(-c4cc(C(=O)Nc5cc(C(F)(F)F)ccn5)ccc4C)nn3)c2)CC1` [I-61], the negative logarithm of the IC50 (pIC50) was 7.96.
The value for `Cc1ccc(C(=O)Nc2cc(C(F)(F)F)ccn2)cc1-n1cc(-c2cncc(N(C)C)c2)nn1` [I-62] was 7.62; that for `Cc1ccc(C(=O)Nc2cc(C(F)(F)F)ccn2)cc1-n1cc(-c2cncc(NC3CCN(C)C3)c2)nn1` (stereo not drawn) [I-63] was 8.22.
To `Cc1ccc(C(=O)Nc2cc(C(F)(F)F)ccn2)cc1-n1cc(-c2cncc(N3CCCCC3)c2)nn1` [I-64] belongs 7.16; to `Cc1ccc(C(=O)Nc2cc(C(F)(F)F)ccn2)cc1-n1cc(-c2cncc(N(C)CCN3CCCC3)c2)nn1` [I-65], 8.05.
The value for `Cc1ccc(C(=O)Nc2cc(C(F)(F)F)ccn2)cc1-n1cc(-c2cncc(NC3CC3)c2)nn1` [I-66] was 7.36; that for `Cc1ccc(C(=O)Nc2cc(C(F)(F)F)ccn2)cc1-n1cc(-c2cncc(N3CCCOCC3)c2)nn1` [I-67] was 7.62.
With `Cc1ccc(C(=O)Nc2cc(C(F)(F)F)ccn2)cc1-n1cc(-c2cncc(N(C)C3CCOC3)c2)nn1` (stereo not drawn) [I-68], the pIC50 is 8.15.
The compound `Cc1ccc(C(=O)Nc2cc(C(F)(F)F)ccn2)cc1-n1cc(-c2cncc(N(C)C3CCOCC3)c2)nn1` [I-69] showed a pIC50 of 7.52.
In turn, `Cc1ccc(C(=O)Nc2cc(C(F)(F)F)ccn2)cc1-n1cc(-c2cncc(NC3CCOC3)c2)nn1` (stereo not drawn) [I-70] had a pIC50 of 7.96.
The value for `Cc1ccc(C(=O)Nc2cc(C(F)(F)F)ccn2)cc1-n1cc(-c2cncc(N3C[C@@H]4C[C@H]3CN4)c2)nn1` [I-71] was 8.40; that for `Cc1ccc(C(=O)Nc2cc(C(F)(F)F)ccn2)cc1-n1cc(-c2cncc(N3CCOCC3)c2)nn1` [I-72] was 7.92; that for `COCCN(C)c1cncc(-c2cn(-c3cc(C(=O)Nc4cc(C(F)(F)F)ccn4)ccc3C)nn2)c1` [I-73] was 7.47.
To `Cc1ccc(C(=O)Nc2cc(C(F)(F)F)ccn2)cc1-n1cc(-c2cncc(N(C)C3CCN(C)CC3)c2)nn1` [I-74] belongs 7.92; to `Cc1ccc(C(=O)Nc2cc(C(F)(F)F)ccn2)cc1-n1cc(-c2cncc(N3CCC(N(C)C)C3)c2)nn1` (stereo not drawn) [I-75], 8.15; to `Cc1ccc(C(=O)Nc2cc(C(F)(F)F)ccn2)cc1-n1cc(-c2cncc(NC3CCN(C)CC3)c2)nn1` [I-76], 7.68.
`Cc1ccc(C(=O)Nc2cc(C(F)(F)F)ccn2)cc1-n1cc(-c2cncc(N3CCNCC3)c2)nn1` [I-77] showed a pIC50 of 8.30.
To `Cc1ccc(C(=O)Nc2cc(C(F)(F)F)ccn2)cc1-n1cc(-c2cncc(N(C)C3CCN(C)C3)c2)nn1` (stereo not drawn) [I-78] belongs 8.40.

For orientation: pIC50 means the IC50 on a negative log10 scale, so that one unit is a factor of ten. A high value points to a small IC50.

The values are drawn from patent publication US9290507B2, “B-RAF kinase inhibitors” (Boehringer Ingelheim International GmbH, priority 2010, dated 2016).
